Assay results from US4314028A, “Fermentation process for producing tallysomycin compounds” (priority 1980, dated 1982).

What was measured:
[1] = test system: Candida albicans IAM 4888; experiment: MIC, two-fold agar dilution method; type: cell-based; settings: Sabouraud agar
Procedure: (§1) The minimum inhibitory concentrations (MIC) of the semibiosynthetic tallysomycin derivatives of the present invention were determined against fungi and gram-positive, gram-negative and acid-fast bacteria by the two-fold agar dilution method. Nutrient agar was used for bacteria and Sabouraud agar for fungi. The results are shown in the table below comparatively with tallysomycin A and B.

[2] = test system: Sarcina lutea PCI1001; experiment: MIC, two-fold agar dilution method; type: cell-based; settings: nutrient agar
Procedure: as §1

[3] = test system: Aspergillus fumigatus IAM 2593; experiment: MIC, two-fold agar dilution method; type: cell-based; settings: Sabouraud agar
Procedure: as §1

[4] = test system: Escherichia coli NIHJ; experiment: MIC, two-fold agar dilution method; type: cell-based; settings: nutrient agar
Procedure: as §1

[5] = test system: Mycobacterium 607; experiment: MIC, two-fold agar dilution method; type: cell-based; settings: nutrient agar
Procedure: as §1

[6] = test system: Staphylococcus aureus Smith; experiment: MIC, two-fold agar dilution method; type: cell-based; settings: nutrient agar
Procedure: as §1

[7] = test system: Proteus mirabilis A9554; experiment: MIC, two-fold agar dilution method; type: cell-based; settings: nutrient agar
Procedure: as §1

[8] = test system: Bacillus subtilis PCI 219; experiment: MIC, two-fold agar dilution method; type: cell-based; settings: nutrient agar
Procedure: as §1

[9] = test system: lysogenic bacterium E. coli W1709 (λ); experiment: Prophage induction of lysogenic bacterium (ILB activity); type: cell-based; settings: t/c ratio of plaque counts greater than 3.0
Procedure: The activity of prophage induction of lysogenic bacterium E. coli W1709 (λ) was determined according to the method disclosed by Lein et al. in Nature 196: 783-784 (1962). The plaque count was made on the agar plate containing test compound (t) and control plate (c). A t/c ratio of the plaque counts of greater than 3.0 was defined to be a significant level and lysogenic induction activity (ILB activity) was expressed by the minimum inducible concentration of the test compound.

[10] = test system: Mycobacterium smegmatis strain M6-3; experiment: Relative antibacterial potency, paper-disc agar diffusion method; type: cell-based; settings: relative to tallysomycin A standard=1000 mcg/mg
Procedure: The relative antibacterial potencies (tallysomycin A standard=1000 mcg/mg) of the tallysomycin derivatives were determined by the paper-disc agar diffusion method using Mycobacterium smegmatis strain M6-3 as the assay organism.

[11] = test system: Lymphocytic leukemia P388; experiment: animal or person; type: in vivo, BDF1 mice; settings: copper-chelated form unless otherwise stated; for Antitumor activity P388 (ED125): ip, once daily 9 days, dose giving T/C survival of 125%; for Antitumor therapeutic index P388: single dose LD50/ED125
From the text: (§2) The antitumor activity of the tallysomycin derivatives was examined in four experimental tumor systems in mice. Lymphocytic leukemia P388 and Lewis lung carcinoma were implanted intraperitoneally into BDF1 mice of either sex at an inoculum size of 3×10^5 and 5×10^5 cells per mouse, respectively. Sarcoma 180 ascites tumor was inoculated intraperitoneally into male dd-strain mice with […] per mouse. Melanotic melanoma B16 was implanted subcutaneously into BDF1 mice with 5×10^5 cells per mouse. Twenty-four hours after the implantation of tumor cells, graded doses of test compounds were administered to mice intraperitoneally in an injection volume of 0.2 ml. per 10 grams of body weight. Test compounds were given once daily for 9 days (qd 1→9 schedule) except for the mice inoculated with Lewis lung carcinoma which were treated for 11 days (qd 1→11). Death or survival of the treated and non-treated (control) animals was recorded daily during the observation period of 45 days after the implantation of tumor cells, and the median survival time was calculated for each of the test (T) and control (C) groups. […] The actual dose giving a T/C of 125% was estimated by linear regression analysis and defined as the effective dose 125 or ED125. The effective dose 150 (ED150) was employed for the evaluation of antitumor effect against Sarcoma 180. In the B16 melanoma experiment the tumor size was measured on day 16 after tumor inoculation, and the dose giving 50% inhibition of tumor growth (ID50) was calculated from regression lines.
(§3) The antitumor therapeutic index was calculated for each derivative from the ratio of toxicity and antitumor activity.

[12] = Acute toxicity, single dose LD50; type: in vivo, dd mice; settings: ip, 30 days observation, copper-chelated form unless otherwise stated
Procedure: Graded doses of test compounds were administered intraperitoneally to groups of dd mice. The injection was given one time only or once daily for 9 consecutive days. Death or survival of the animals was recorded for 30 days after the last dose of test compound to calculate the single or multiple median lethal dose (LD50).

[13] = test system: Sarcoma 180; experiment: animal or person; type: in vivo, dd-strain mice; settings: copper-chelated form unless otherwise stated; for Antitumor activity S180 (ED150): ip, once daily 9 days, effective dose 150, survival; for Antitumor therapeutic index S180: single dose LD50/ED150
From the text: as §2, §3

[14] = test system: Melanotic melanoma B16; experiment: Antitumor activity in mice, melanotic melanoma B16; type: in vivo, BDF1 mice; settings: copper-chelated form unless otherwise stated; for Antitumor activity B16 (ID50): ip, once daily 9 days, 50% inhibition of tumor growth, day 16, 23040 min; for Antitumor therapeutic index B16: single dose LD50/ID50
From the text: as §2, §3

SMILES	minimum inhibitory concentration (MIC) [1]	minimum inhibitory concentration (MIC) [2]	minimum inhibitory concentration (MIC) [3]	minimum inhibitory concentration (MIC) [4]	minimum inhibitory concentration (MIC) [5]	minimum inhibitory concentration (MIC) [6]	minimum inhibitory concentration (MIC) [7]	minimum inhibitory concentration (MIC) [8]	ILB activity (minimum inducible concentration) [9] [µg/mL]	Antibacterial potency [10]	Antitumor activity P388 (ED125) [11] [mg/kg/day]	Antitumor therapeutic index P388 [11]	LD50 single dose [12] [mg/kg/day]	Antitumor activity S180 (ED150) [13] [mg/kg/day]	Antitumor therapeutic index S180 [13]	Antitumor activity B16 (ID50) [14] [mg/kg/day]	Antitumor therapeutic index B16 [14]
Cc1c(N)nc([C@H](CC(N)=O)NC[C@H](N)C(N)=O)nc1C(=O)N[C@H](C(=O)N[C@H](C)[C@@H](O)CC(=O)N[C@H](C(=O)NC(O[C@@H]1O[C@@H](C)[C@@H](N)[C@@H](O)[C@H]1O)C(O)c1nc(-c2nc(C(=O)NCCCC(N)CC(=O)NCCCNCCCCN)cs2)cs1)[C@@H](C)O)[C@H](O[C@@H]1O[C@@H](CO)[C@@H](O)[C@H](O)[C@@H]1O[C@H]1O[C@H](CO)[C@@H](O)[C@H](OC(N)=O)[C@@H]1O)c1c[nH]cn1 (some centres unmarked) [Tallysomycin A, reference compound]	12.5	0.05	1.6	0.05	0.2	0.1	0.4	< 0.003	0.00125	1,000 μ/mg	–	–	–	–	–	–	–
Cc1c(N)nc(C(CC(N)=O)NCC(N)C(N)=O)nc1C(=O)NC(C(=O)NC(C)C(O)CC(=O)NC(C(=O)NC(OC1OC(C)C(N)C(O)C1O)C(O)c1nc(-c2nc(C(=O)NCCCC(N)CC(=O)NCCCNC(C)c3ccccc3)cs2)cs1)C(C)O)C(OC1OC(CO)C(O)C(O)C1OC1OC(CO)C(O)C(OC(N)=O)C1O)c1c[nH]cn1 (centres unmarked) [Tallysomycin S14a]	50	0.8	3.1	0.2	0.1	0.8	3.1	0.1	0.01	1,300 μ/mg	–	–	–	–	–	–	–
Cc1c(N)nc(C(CC(N)=O)NCC(N)C(N)=O)nc1C(=O)NC(C(=O)NC(C)C(O)CC(=O)NC(C(=O)NC(OC1OC(C)C(N)C(O)C1O)C(O)c1nc(-c2nc(C(=O)NCC(O)CN)cs2)cs1)C(C)O)C(OC1OC(CO)C(O)C(O)C1OC1OC(CO)C(O)C(OC(N)=O)C1O)c1c[nH]cn1 (centres unmarked) [Tallysomycin S4b]	25	3.1	0.8	0.4	0.003	0.8	0.4	0.006	–	405 μ/mg	> 3.0	< 4	13	0.13	100	0.50	26
Cc1c(N)nc(C(CC(N)=O)NCC(N)C(N)=O)nc1C(=O)NC(C(=O)NC(C)C(O)CC(=O)NC(C(=O)NC(OC1OC(C)C(N)C(O)C1O)C(O)c1nc(-c2nc(C(=O)NCCCC(N)CC(=O)NCCCN(CCO)CCO)cs2)cs1)C(C)O)C(OC1OC(CO)C(O)C(O)C1OC1OC(CO)C(O)C(OC(N)=O)C1O)c1c[nH]cn1 (centres unmarked) [Tallysomycin S8a]	12.5	0.4	0.8	0.1	0.1	0.2	0.4	0.006	0.005	550 μ/mg	0.78	54	42	–	–	–	–
Cc1c(N)nc(C(CC(N)=O)NCC(N)C(N)=O)nc1C(=O)NC(C(=O)NC(C)C(O)CC(=O)NC(C(=O)NC(OC1OC(C)C(N)C(O)C1O)C(O)c1nc(-c2nc(C(=O)NCCCN(C)C)cs2)cs1)C(C)O)C(OC1OC(CO)C(O)C(O)C1OC1OC(CO)C(O)C(OC(N)=O)C1O)c1c[nH]cn1 (centres unmarked) [Tallysomycin S7b]	> 50	12.5	0.4	0.4	3.1	6.3	6.3	0.1	0.08	380 μ/mg	2.1	14	30	0.14	214	0.16	188
CNCCCNC(=O)CC(N)CCCNC(=O)c1csc(-c2csc(C(O)C(NC(=O)C(NC(=O)CC(O)C(C)NC(=O)C(NC(=O)c3nc(C(CC(N)=O)NCC(N)C(N)=O)nc(N)c3C)C(OC3OC(CO)C(O)C(O)C3OC3OC(CO)C(O)C(OC(N)=O)C3O)c3c[nH]cn3)C(C)O)OC3OC(C)C(N)C(O)C3O)n2)n1 (centres unmarked) [Tallysomycin S11a]	1.6	0.2	0.8	0.1	0.1	0.8	0.2	0.025	0.08	570 μ/mg	0.60	30	18	–	–	–	–
Cc1c(N)nc([C@H](CC(N)=O)NC[C@@H](N)C(N)=O)nc1C(=O)N[C@H](C(=O)N[C@H](C)[C@@H](O)CC(=O)N[C@@H](C(=O)NC(O[C@@H]1O[C@@H](C)[C@@H](N)[C@@H](O)[C@H]1O)C(O)c1nc(-c2nc(C(=O)NCCCNCCCCN)cs2)cs1)[C@@H](C)O)C(O[C@@H]1O[C@@H](CO)[C@H](O)[C@@H](O)[C@@H]1O[C@H]1O[C@H](CO)[C@@H](O)[C@@H](OC(N)=O)[C@@H]1O)c1cnc[nH]1 (some centres unmarked) [Tallysomycin B, reference compound]	6.3	0.4	0.8	0.2	0.2	0.4	0.2	0.006	0.01	900 μ/mg	–	–	–	–	–	–	–
